From patent publication US20240122917A1, “USE OF COMPOSITION CONTAINING CILOSTAZOL IN CEREBROVASCULAR DISEASES” (NEURODAWN PHARMACEUTICAL CO., LTD., priority 2021, published 2024)

What was measured:
[1] = system: mice with focal cerebral ischemia-reperfusion injury (MCAO mice); experiment: Mouse focal cerebral ischemia-reperfusion model (internal carotid artery suture method), area of cerebral infarction by TTC staining; format: in vivo, C57BL/6J mice; conditions: cilostazol at 3.33-16.67 mg/kg or edaravone at 3.33-16.67 mg/kg in the tail vein
Experimental: (§1) The animals were subjected to evaluation of neurological deficit symptoms and then sacrificed with CO2. The brain was taken out by cutting off head. The olfactory bulb, cerebellum and lower brainstem were removed. The blood on the surface of the brain was washed with normal saline, and the residual water on the surface was removed. The brain was placed at −20° C. for 20 min, then taken out, immediately cut to a coronal section vertically downward at the crossing plane of the line of sight, and sliced backward every 2 mm. The brain slices were incubated in 1% TTC staining solution (at 37° C. for 30 min). The normal brain tissue was stained into dark red, and the ischemic brain tissue was stained into pale white. After being washed with normal saline, the brain slices were quickly arranged in a row from front to back, removed off the residual water on the surface, and photographed.
Calculation of area of cerebral infarction: The photos were processed by Image J software, and the corresponding area of left brain and non-infarction area of right brain were calculated according to the formula, so that the percentage of the area of infarction was calculated.
The experimental animals were divided into 4 groups, a model group and three groups of compositions of cilostazol/edaravone (respectively a group of cilostazol 3.33 mg/kg+edaravone 16.67 mg/kg in 1:5; a group of cilostazol 5.71 mg/kg+edaravone 14.29 mg/kg in 1:2.5; a group of cilostazol 10 mg/kg+edaravone 10 mg/kg in 1:1, and each composition was administered at a total amount of 20 mg/kg). After the cerebral ischemia model was established, the animals were assigned to each group in a single-blind manner with equal probability. After reperfusion, the animals were immediately administered intravenously with the drugs once. The animals in the model group were administered with an equal volume of normal saline. The animals were sacrificed 24 hours after cerebral ischemia, and their brains were taken out, stained, and photographed for determining the area of cerebral infarction.
Establishment of focal cerebral ischemia-reperfusion model: The mouse focal cerebral ischemia-reperfusion model was established by internal carotid artery suture method. An anesthetized mouse was fixed on an operating table in a supine position. The neck of the mice was cut at the midline, and the subcutaneous tissue was bluntly separated. The right common carotid artery, external carotid artery, and internal carotid artery were separated. […]

plasma protein = conditions: background statement; cited from earlier work
[2] = system: rats with focal cerebral ischemia-reperfusion injury (MCAO rats); experiment: Rat focal cerebral ischemia-reperfusion model (internal carotid artery suture method), area of cerebral infarction by TTC staining; format: in vivo, Sprague-Dawley (SD) rats; conditions: for Area of cerebral infarction (%): 24 hours after cerebral ischemia, mean ± SD; for area of cerebral infarction in MCAO rats (in words) / neurological deficits in MCAO rats: cilostazol at 1-15 mg/kg or edaravone at 1.67-8.33 mg/kg in the tail vein
Experimental: The experimental animals were divided into 4 groups, cilostazol group (1 mg/kg), edaravone group (5 mg/kg), cilostazol and edaravone composition group (6 mg/kg, cilostazol:edaravone=1:5, cilostazol 1 mg/kg+edaravone 5 mg/kg) and model group. After the cerebral ischemia model was established, the animals were assigned to each group in a single-blind manner with equal probability. After reperfusion, the animals were immediately administered intravenously with the drugs once. The animals in the model group were administered with an equal volume of normal saline. The animals were sacrificed 24 hours after cerebral ischemia, and their brains were taken out, stained, and photographed for determining the area of cerebral infarction.
The rat focal cerebral ischemia-reperfusion model was established by internal carotid artery suture method. The limbs (hind limbs above the knee joint and forelimbs below the wrist joint) and head of an anesthetized rat were tightened with rubber bands. The animal was fixed on an operating table in supine position, and was shaved with an animal shaver from the head to the chest, and the skin was disinfected with alcohol. The neck of the rat was cut at the midline, and the subcutaneous tissue was bluntly separated. The thin layer of fascia on the surface of the anterior triangle of the neck was separated, the lower side-lower edge of the clavicular hyoid muscle was pulled up, and the longitudinally pulsating artery parallel to this muscle can be seen. The arterial shell was opened, and the bifurcation of the right carotid artery was exposed. The right common carotid artery, external carotid artery and internal carotid artery were separated. The vagus nerve was gently stripped, and the external carotid artery was ligated and cut. The proximal end of the common carotid artery was clamped. An incision was made at the distal end from the ligature of the external carotid artery, and was inserted with a suture line, which was passed through the bifurcation of the common carotid artery into the internal carotid artery, and then was inserted slowly until reaching slight resistance (approximately 20 mm from the bifurcation), so as to block all blood supply to the middle cerebral artery. The suture line was slightly fixed below the incision of the external carotid artery with silk thread. The silk thread clamping the proximal end of the common carotid artery was loosened. A gauze soaked in sterile saline was covered on the wound, and the rat was placed on a heat preservation pad to keep warm. 2.0 h after cerebral ischemia on the right side, the suture line was pulled out gently to restore the blood supply for reperfusion. The external carotid artery was ligated with silk thread fixing the suture line. The skin was stitched, and disinfected. The rats were placed in clean feed, and their general condition and respiration were observed until they woke up from anesthesia. The rats were provided with food and water, and commonly reared.
as §1, with “photographed. […]” for “photographed.”

[3] = system: rats with focal cerebral ischemia-reperfusion injury (MCAO rats); experiment: as above; format: in vivo, Sprague-Dawley (SD) rats; conditions: 24 hours after cerebral ischemia, mean ± SD

Row | SMILES | area of cerebral infarction in MCAO mice (in words) [1] | neurological deficits in MCAO mice [1] | binding rate to plasma protein (plasma protein) | Area of cerebral infarction (%) ([2]; Example 1, cilostazol 1 mg/kg i.v. once immediately after reperfusion, 2.0 h ischemia, model group 40.35 ± 8.24) | area of cerebral infarction in MCAO rats (in words) [2] | neurological deficits in MCAO rats [2] | Area of cerebral infarction (%) ([3]; Example 2, cilostazol 5 mg/kg i.v. once immediately after reperfusion, model group 40.50 ± 8.51) | Area of cerebral infarction (%) ([3]; Example 3, cilostazol 15 mg/kg i.v. once immediately after reperfusion, model group 39.41 ± 9.56) | Area of cerebral infarction (%) ([2]; Example 1, edaravone 5 mg/kg i.v. once immediately after reperfusion, model group 40.35 ± 8.24) | Area of cerebral infarction (%) ([2]; Example 2, edaravone 5 mg/kg i.v. once immediately after reperfusion, model group 40.50 ± 8.51) | Area of cerebral infarction (%) ([3]; Example 3, edaravone 3 mg/kg i.v. once immediately after reperfusion, model group 39.41 ± 9.56)
1 | O=C1CCc2cc(OCCCCc3nnnn3C3CCCCC3)ccc2N1 [Cilostazol] | reduce the area of cerebral infarction | significantly ameliorate the neurological deficits | about 95% | 34.24 ± 7.25% | reduce the area of cerebral infarction | significantly ameliorate the neurological deficits | 32.59 ± 7.15 % | 27.26 ± 9.74 % |  |  | 
2 | CC1=NN(c2ccccc2)C(=O)C1 [Edaravone, 3-methyl-1-phenyl-2-pyrazolin-5-one] | reduce the area of cerebral infarction | significantly ameliorate the neurological deficits |  |  | reduce the area of cerebral infarction | significantly ameliorate the neurological deficits |  |  | 29.35 ± 10.45 % | 29.49 ± 9.06 % | 31.24 ± 6.83 %
